According to article PMC11843613, “Further Optimization of the mGlu1 PAM VU6024578/BI02982816: Discovery and Characterization of VU6033685” (ACS Chemical Neuroscience, 2025):

Legend:
striatal DA release = experiment: Electrically evoked striatal DA release in brain slices (fast scanning cyclic voltammetry); conditions: 10 μM DHPG alone, mouse slices
Procedure: into the home cage. The arena is then cleaned with 70% ethanol in between animals. The day of the test the animals are habituated to the dosing room for 2 hours. The animals were administered VU6024578 (1-10 mg/kg p.o.) or vehicle (10% Tween 80) and were placed back into their homecage for 60 min. The animals were then injected with MK-801 (0.075 mg/kg 1 ml/kg s.c.) and placed back in the homecage for 30 min. The animals are then placed into the arena with two identical familiar objects for ten minutes and then placed back into the home cage. The animals are then placed back into the arena with one of the familiar objects replaced with a novel object at 120 min after the familiar object exposure. The activity of the animals are recorded and the time spent exploring each of the objects is scored by a blinded observer. Recognition index is determined by subtracting […] divided by total time spent exploring.
Brain Slice Preparation and Fast Scanning Cyclic Voltammetry: […]
Electrically-evoked dopamine overflow was monitored with carbon fiber electrodes as previously reported (Foster et al. 2014). […]

[1] = tested on: amphetamine-induced hyperlocomotion in rats; design: method as in PMID 39665415; conditions: cited from earlier work
[2] = design: method as in PMID 39665415; conditions: cited from earlier work
human mGlu1 = molecular target: T1, human mGlu1 (Homo sapiens, UniProt Q13255); design: method as in PMID 39665415; conditions: previously reported compound; cited from earlier work
T1 construct: expressed in transfected cells; pcDNA5/TO)
T1 sequence (Q13255 19-1194): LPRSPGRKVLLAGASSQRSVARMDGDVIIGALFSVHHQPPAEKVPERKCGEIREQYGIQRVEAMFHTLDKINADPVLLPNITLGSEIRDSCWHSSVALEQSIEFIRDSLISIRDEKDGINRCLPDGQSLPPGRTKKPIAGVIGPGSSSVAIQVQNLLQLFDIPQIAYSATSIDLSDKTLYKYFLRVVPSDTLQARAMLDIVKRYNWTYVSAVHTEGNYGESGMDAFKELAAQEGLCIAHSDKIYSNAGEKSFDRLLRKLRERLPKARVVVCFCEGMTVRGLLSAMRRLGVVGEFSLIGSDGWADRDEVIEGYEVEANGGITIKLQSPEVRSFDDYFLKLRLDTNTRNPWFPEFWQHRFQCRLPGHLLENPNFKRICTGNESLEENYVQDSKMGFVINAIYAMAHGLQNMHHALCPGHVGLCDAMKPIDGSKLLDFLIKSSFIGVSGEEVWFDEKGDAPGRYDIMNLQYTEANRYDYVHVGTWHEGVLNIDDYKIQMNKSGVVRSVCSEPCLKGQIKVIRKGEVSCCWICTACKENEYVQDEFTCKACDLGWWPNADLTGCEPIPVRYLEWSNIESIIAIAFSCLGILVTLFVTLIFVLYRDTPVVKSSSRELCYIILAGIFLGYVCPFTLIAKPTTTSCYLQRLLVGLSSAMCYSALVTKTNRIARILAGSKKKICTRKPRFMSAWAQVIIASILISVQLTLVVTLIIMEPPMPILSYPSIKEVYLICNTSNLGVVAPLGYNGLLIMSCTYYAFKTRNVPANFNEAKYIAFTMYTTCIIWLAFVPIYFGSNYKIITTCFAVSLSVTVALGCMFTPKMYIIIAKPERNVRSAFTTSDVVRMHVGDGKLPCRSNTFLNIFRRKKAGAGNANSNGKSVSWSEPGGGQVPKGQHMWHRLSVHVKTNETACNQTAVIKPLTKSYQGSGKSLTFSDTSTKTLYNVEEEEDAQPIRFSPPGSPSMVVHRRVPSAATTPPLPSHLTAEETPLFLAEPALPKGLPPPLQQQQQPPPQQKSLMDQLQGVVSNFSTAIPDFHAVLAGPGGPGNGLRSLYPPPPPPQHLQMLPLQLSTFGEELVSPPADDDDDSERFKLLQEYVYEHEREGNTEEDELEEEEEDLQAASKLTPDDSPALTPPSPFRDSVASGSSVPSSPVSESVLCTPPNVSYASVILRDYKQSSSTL

| SMILES | effect on striatal DA release, agonist alone (striatal DA release) | unbound brain level as fold of rat mGlu1 EC50 at which AHL was reversed [1] | species with adverse events [2] | mGlu1 Glumax of 3 (human mGlu1) |
| --- | --- | --- | --- | --- |
| N[C@H](C(=O)O)c1cc(O)cc(O)c1 [DHPG, (S)-3,5-dihydroxyphenylglycine, reference compound] | did not produce a significant inhibition of striatal DA release |  |  |  |
| Cn1nc(-c2ccnn2C)cc1CNC(=O)c1cc(-c2ccco2)ccc1Cl [compound 3] |  | ~0.7 fold | only exhibited AEs in dogs | 83% |
